US11564911B2, “Small molecule dual-inhibitors of TRPV4 and TRPA1 for sanitizing and anesthetizing” (Duke University, priority 2016, dated 2023)

Legend:
[1] = target: T1, TRPV2 (Mus musculus, UniProt Q9WTR1); assay: Ca++ imaging in N2a cells over-expressing TRPV2; assay type: cell-based; conditions: 5 μM, mouse isoform in N2a cells
T1 construct: expressed in transfected cells; host or cells: N2a cells, eGFP co-transfected
Text: Mean±SEM is shown, ≥100 cells per condition. […] Plot generated from averaged peak ΔCa++ concentration of […] per data-point.

[2] = system: N2a cells; assay: Cell viability (resazurin) of N2a cells; assay type: cell-based; conditions: 48 h; for cellular toxicity vs inhibitory potency against TRPV4/TRPA1, factor: mouse
Procedure: FIGS. 30A-30B: Cellular toxicity studies of compounds 16-8 and 16-19. N2a cells were subjected to increasing concentrations of compounds 16-8 and 16-19, resulting cell viability was analyzed for the next 48 h. (FIG. 30A) Time course of cell viability in the presence of various concentrations of 16-8. […] Representative result of 2 independent experiments.
N2a cells were cultured in 96 well plates for 24-48 h. Cell viability studies relied on metabolic capability monitored with the indicator dye resazurin. Its reduction to resorufin (indicated by color change dark blue to pink) was monitored over time. Changes in absorbance at λ=570 nm were recorded using a microplate reader (Molecular Devices). […] Eight replicate cultures per experimental point were studied.

[3] = system: mice, UVB-exposed hind paws; assay: UVB-overexposure evoked nocifensive behavior, topical compound; assay type: in vivo, mouse; conditions: 0.5 mM in 40 μL
Procedure: Compounds were tested for their effect on nocifensive behavior (response to pain) following UVB overexposure. Behavioral tests were performed to evaluate the decrease in withdrawal thresholds in response to mechanical von Frey hair or thermal stimuli applied to hind paws. The Von-Frey apparatus (Ugo Basile) applied a mechanical stimulus with a flexible steel wire from underneath the hind paw. The force leading to withdrawal was determined. For the thermal stimuli test, paws were stimulated with heat from underneath applied by an infrared beam (Hargreave's test apparatus; Ugo Basile), and withdrawal latencies were recorded. The withdrawal thresholds were ascertained before and after UV exposure. Mice were exposed to UVB 3-5 days after the last application of tam/oil, using a Bio-Rad Gel Doc 2000 UV transilluminator (302 nm) for 5 min with an exposure of 600 mJ/cm^2. This represents 5-10 times the minimal erythema-inducing dose, in keeping with the rationale of inducing sunburn and studying sunburn-evoked pain.

[4] = Compound concentration in tissues/organs and plasma by LC-MS/MS after i.p. injection; assay type: in vivo, mouse; conditions: 10 mg/kg i.p.; for compound concentration in liver and kidney / compound concentration in plasma / concentration at 1 h: 1 h; for concentration at 1 h: mouse, heart, brain, brainstem, trigeminal ganglion, skin, intraperitoneal
Procedure: Mice were treated with 10 mg/kg i.p. of the respective inhibitor. Post-euthanasia harvested tissue was frozen in liquid nitrogen and stored at −80° C. for further analysis.
Frozen tissue samples were partially thawed and cut into 1 mm slices, 5-15 mg tissue, 2-fold excess water (mass/vol.), 6-fold excess acetonitrile (16- . . . compounds) or methanol (GSK205) containing appropriate amount of internal standard, and 2.5 mm zirconia/silica bead (Biospec Products Inc.) were added to 500-μL polypropyl-ene (PP) conical tube, homogenized in a Fast-Prep apparatus (Thermo-Savant) at speed “4” for 20 sec at room temp, and centrifuged at 13,600 g for 5 min at room temp. Depending on the expected concentration range of the measured compound, the supernatant was diluted 1/4-1/20 (in Mobile phase A, see below) and placed in autosampler for LC-MS/MS analysis.
The LC-MS/MS assay for 16- . . . compounds and GSK205 was developed on an Agilent 1200 series LC system interfaced with Applied Biosystems API 5500QTrap, a hybrid triple quadruple-linear trap MS/MS spectrometer.
Analyst (version 1.6.1) software was used for mass parameters tuning, data acquisition, and quantification. LC column: 3×4 mm RP C18 (Phenomenex, AJ0-4287) was operated at 35° C. Mobile phase A: 0.1% formic acid, 2% acetonitrile, in LC/MS-grade water; mobile phase B: acetonitrile; flow rate: 1 mL/min, 1:1 MS/MS:waste split. Run time was 4 min. Diverter valve was used to send flow to MS/MS only between 1.2 and 2.5 min. The elution gradi-ent was: 0-0.5 min, 1% B; 0.5-1.2 min, 1-95% B; 1.2-1.5 min, 95% B; 1.5-1.6 min, 95-1% B. Autosampler was oper-ated at 4° C.; injection volume was kept at 10-50 μL. Electrospray ionization (ESI) source parameters were: positive ionization mode, curtain gas flow=30, ionization potential=5500 V, temperature=500° C., nebulizing gas 1 flow=30, nebulizing gas 2=30, declustering potential=20 V. 16- . . . compounds and GSK205 were individually infused as 100 nM solutions in 50% A/50% B at 10 μL/min flow rate and parameters optimized to provide maximal ion count for “parent” and collision-produced (“daughter”) MS/MS ions. Parent/daughter quantifier [qualifier] ions utilized: GSK205 (401.1/280[370]), 16-8 (400.1/279.1[91.1], 16-16 (387.1/280[105]), 16-18 (415.2/280[370], 16-19 (414.1/279.2[91.1]. Standard (analyte of interest)/internal standard pairs utilized: GSK205/16-16, 16-8/16-16, 16-18/GSK205, 16-19/16-8.
Calibration samples (n=6) were prepared by adding pure standard of the measured compound to tissue homogenate (tissue+2-fold excess water, mass/vol) in the appropriate range needed for the particular dosing regime. Organs studied were analyzed alongside the study samples. The following are typical ranges used (the lower value representing also the LLOQ at 80% accuracy limit, all other calibrator levels at 85% accuracy limit): 0.38-6 nM (plasma), 6-100 nM (skin), 6-48 nM (heart), 7.5-120 nM (brain), 19-300 or 1500-24000 nM (liver), 56-900 or 1500-12000 nM (kidney), 500-8000 nM (fat). Peak integration, calibration, and quantification was performed within Analyst software. The response of the peak area standard/int. std. to nominal concentration was linear with r=0.999 or better.

[5] = Assessment of hepatic, renal and cardiac function in treated mice; assay type: in vivo, mouse; conditions: 10 mg/kg i.p., vs vehicle; for heart rate (EKG): over 1 h, at the 6 h time-point
Procedure: Mice were treated i.p. with compounds 16-8 and 16-19 (10 mg/kg). Hepatic and renal integrity were analyzed by alanine amino-transferase- and creatinine assays (Sigma), both relying on measurement of absorbance at λ=570 nm in 96-well micro-titerplates. 8 technical replicates per animal were performed.
For heart rate assessment in mice treated with 16-8 and 16-19, animals were fitted with two electrodes, one to the ear, via clip, one to the rib-cage, using firm adhesive. Heart rate was monitored and analyzed using axoscope and clampfit 9.2 software (Molecular Devices)

T1 sequence (Q9WTR1 whole entry, canonical isoform): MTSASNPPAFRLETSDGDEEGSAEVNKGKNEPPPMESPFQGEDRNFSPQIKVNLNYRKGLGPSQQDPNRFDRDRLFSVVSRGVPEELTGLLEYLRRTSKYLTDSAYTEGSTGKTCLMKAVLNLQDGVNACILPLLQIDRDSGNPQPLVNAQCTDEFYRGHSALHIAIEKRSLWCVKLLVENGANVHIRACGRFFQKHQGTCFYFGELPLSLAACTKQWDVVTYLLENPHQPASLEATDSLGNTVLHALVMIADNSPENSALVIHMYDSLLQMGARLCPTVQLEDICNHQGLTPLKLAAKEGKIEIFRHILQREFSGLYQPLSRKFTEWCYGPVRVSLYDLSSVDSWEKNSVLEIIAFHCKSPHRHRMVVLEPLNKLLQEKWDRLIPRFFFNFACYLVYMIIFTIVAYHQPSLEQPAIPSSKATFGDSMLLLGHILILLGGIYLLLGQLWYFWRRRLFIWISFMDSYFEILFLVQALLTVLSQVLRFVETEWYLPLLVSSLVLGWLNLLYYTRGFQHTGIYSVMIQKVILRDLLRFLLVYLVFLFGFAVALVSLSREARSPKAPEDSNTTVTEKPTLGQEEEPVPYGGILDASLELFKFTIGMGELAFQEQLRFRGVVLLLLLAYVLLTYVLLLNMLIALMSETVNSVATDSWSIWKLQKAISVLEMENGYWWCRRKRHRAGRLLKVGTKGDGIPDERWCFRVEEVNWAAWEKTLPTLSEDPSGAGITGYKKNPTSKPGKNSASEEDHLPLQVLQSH

Structure (SMILES) | inhibition of TRPV2 [1] | cell viability time course at increasing concentrations [2] | cellular toxicity vs inhibitory potency against TRPV4/TRPA1, factor [2] | response to pain following UVB exposure [3] | concentration in fat and pancreas after one hour [4] | compound concentration in liver and kidney [4] | compound concentration in plasma [4] | concentration at 1 h [4] | heart rate (EKG) [5] | alanine-amino-transferase (ALT) [5] | serum creatinin [5] | concentration at the 6 h time-point compared to the 1 h time-point ([4]; several organs) | concentration at the 24 h time-point ([4]; several organs)
CN(CCc1ccc(Nc2nc(-c3ccccc3)cs2)cc1)Cc1ccccc1 [Compound 16-8] | did not inhibit | clear reduction at 40 and 80 μM | 50-100 | especially effective | above its IC50 | micromolar/submicromolar | virtually undetectable | < 100 nM | did not detect differences and changes in heart rate | not significantly elevated | not significantly elevated | – | –
CCN(CCc1ccc(Nc2nc(-c3ccccc3)cs2)cc1)Cc1ccccc1 [Compound 16-19] | did not inhibit | – | 50-100 | – | – | micromolar/submicromolar | virtually undetectable | < 100 nM | did not detect differences and changes in heart rate | not significantly elevated | not significantly elevated | 10-20 fold | lower than at the 6 h but higher than at the 1 h time-point
CN(CCc1ccc(Nc2nc(-c3cccnc3)cs2)cc1)Cc1ccccc1 [GSK205] | – | – | – | as effective as vehicle | – | – | – | – | – | – | – | – | –
